Series [1] has as its system skin of nude mice. In words: Penetration of biotinylated conjugates into skin of nude mice (streptavidin staining). The note with it: for penetration of drug conjugates into skin: 1 mM-100 μM in PBS, nude mice, thirty, sixty, 120 minutes. As to the method: Samples (100 μl) were applied as a liquid without excipient, prevented from dispersing by a Vaseline™ barrier, and allowed to penetrate for fifteen minutes. At the end of this period the animal was sacrificed, the relevant sections of skin were excised, embedded in mounting medium (OCT), and frozen. Frozen sections (5 microns) were cut using a cryostat, collected on slides, and stained with fluorescently labeled streptavidin (Vector Laboratories, Burlingame, Calif.). The slides were fixed in acetone at 4° C. for ten minutes, air dried, soaked in PBS for five minutes, blocked with normal goat serum for five minutes, and washed with PBS for five minutes. The section was stained by incubation with fluorescently labeled streptavidin at 30 μg/ml for thirty minutes, washed with PBS, counterstained with propidium iodide (1 μg/ml) for two minutes, and the section was mounted with Vectashield™ mounting media. Slides were analyzed by fluorescent microscopy. Parallel studies were done using streptavidin-horse radish peroxidase rather than fluorescein-streptavidin. The biotinylated peptide was visualized by treatment of the sections with the horseradish peroxidase substrate diaminobenzadine, and visualization with light microscopy.
Alternatively, sample (100 μl) was applied as a liquid without excipient and prevented from evaporating by wrapping plastic wrap over the sample sealed with Vaseline™. […] At the end of this period animal was sacrificed, the relevant section of skin was excised, embedded in mounting medium (OCT) and frozen. […] Slides were analyzed by fluorescent microscopy.
At the end of this period animal was sacrificed, the relevant section of skin was excised, embedded in mounting medium (OCT) and frozen. […] Slides were analyzed by fluorescent microscopy
(§1) At the end of this period animal was sacrificed, the relevant section of skin was excised, embedded in mounting medium (OCT) and frozen. […] Slides were analyzed by fluorescent microscopy.
as §1

In series [2] the test system is skin of Balb/C mice. The note with it: mouse, in vivo. As for the experimental part: Slides were analyzed by fluorescent microscopy.
Series [3] relates to human skin grafts on SCID mice. Conditions: in vivo. As for the experimental part:
Samples (100 μl) were applied as a liquid within excipient and prevented from dispersing by a Vaseline™ barrier and allowed to penetrate for fifteen minutes. At the end of this period animal was sacrificed, the relevant section of skin was excised, embedded in mounting medium (OCT) and frozen. […] Slides were analyzed by fluorescent microscopy.

A short description of series [4]: Half-life / release of conjugate in buffer. It counts as physicochemical.
For series [5], the system named is Caco-2 cells. In words: Cellular uptake in Caco-2 cells. It counts as cell-based, human. The note with it: five minutes; for uptake into Caco-2 cells in suspension (flow cytometry): 50-0.8 μM. As to the method:
To analyze the penetration of fluorescent oligomers of D-arginine into the cells when in suspension, the monolayers were treated with trypsin (4.5 ml of a 0.05% solution Gibco, Grand Rapids, Mich.) and the individual cell suspension was spun down.
To analyze the ability of the fluorescent peptides to enter Caco-2 cells when part of a monolayer, the cells were seeded in lab-tek flaskette microscope slides (Nalge Nunc Int., Naperville, Ill.) in 4 ml at a density of 60,000 cells/ml and grown for 21 days with the media being changed every other day. […] The monolayer was subsequently washed with PBS/2% FBS twice to remove labeled peptide and analyzed using fluorescent microscopy.
Varying concentrations of the taxol conjugates (50-0.08 μM) were added to the apical side and exposed to the monolayer of Caco-2 cells for three minutes. The membrane was removed from the apparatus, the cells trypsinized, and the resulting cell suspension was analyzed by flow cytometry (FIG. 33).

Series [6] has as its system Jurkat cells. Briefly: Cellular uptake kinetics assay (Michaelis-Menton). The series is classed as cell-based, human. Details: Vmax: unit not given here. As to the method:
(§2) The accuracy of this method for determining concentration was established by weighing selected samples and dissolving them in a known amount of PBS buffer. The concentrations determined by UV spectroscopy correlated with the amounts weighed out manually. Jurkat cells (human T cell line), murine B cells (CH27), or human PBL cells were grown in 10% fetal calf serum and DMEM and each of these were used for cellular uptake experiments. […] The microtiter plates were centrifuged and the cells were isolated, washed with cold PBS (3×250 μL), incubated with 0.05% trypsin/0.53 mM EDTA at 37° C. for 5 min, washed with cold PBS, and resuspended in PBS containing 0.1% propidium iodide. The cells were analyzed using fluorescent flow cytometry (FACScan, Becton Dickinson) and cells staining with propidium iodide were excluded from the analysis. The data presented is the mean fluorescent signal for the 5000 cells collected.
Cellular Uptake Kinetics Assay. The assays were performed as previously described except the cells were incubated for 0.5, 1, 2, and 4 min at 4° C. in triplicate in 2% FCS/PBS (50 μl) in microtiter plates (96 well). The reactions were quenched by diluting the samples into 2% FCS/PBS (5 mL). The assays were then worked up and analyzed by fluorescent flow cytometry as previously described.
The rates of cellular uptake were determined after incubation (3° C.) of the peptides in Jurkat cells for 30, 60, 120, and 240 seconds (Table 1).

Series [7] relates to Jurkat cells. Briefly: FACS cellular uptake assay. The series is classed as cell-based, human. Conditions: 4 min, 23° C. As for the experimental part:
as §2
Inhibition of Cellular Uptake with Sodium Azide. The assays were performed as previously described with the exception that the cells used were preincubated for 30 min with 0.5% sodium azide in 2% FCS/PBS buffer prior to the addition of fluorescent peptides and the cells were washed with 0.5% sodium azide in PBS buffer. All of the cellular uptake assays were run in parallel in the presence and absence of sodium azide.
To determine the structural requirements for the cellular uptake of short arginine-rich peptides, a series of fluorescently-labeled truncated analogues of Tat49-57 were synthesized using standard solid-phase chemistry. See, e.g., Atherton, E. et al. SOLID-PHASE PEPTIDE […] (IRL: Oxford, Engl. 1989). A fluorescein moiety was attached via an aminohexanoic acid spacer on the amino termini. The ability of these fluorescently labeled peptides to enter Jurkat cells was then analyzed using fluorescent activated cell sorting (FACS). The peptide constructs tested were Tat49-57 (Fl-ahx-[…]; SEQ ID NO:8): Tat49-56 (Fl-ahx-[…]; SEQ ID NO:9), Tat49-55 (Fl-ahx-RKKRRQR; SEQ ID NO: 10), Tat50-57 (Fl-ahx-[…]; SEQ ID NO: 11), and Tat51-57 (Fl-ahx-KRRQRRR; SEQ ID NO: 12). Differentiation between cell surface binding and internalization was accomplished throughout by running a parallel set of assays in the presence and absence of sodium azide. Because sodium azide inhibits energy-dependent cellular uptake but not cell surface binding, the difference in fluorescence between the two assays provided the amount of fluorescence resulting from internalization.

The mark [8] stands for this setting: Jurkat cells, incubation 30, 60, 120, 240 seconds, 3° C.

SMILES strings stand for the structures. Read-outs that look alike come from different tables or passages of the source. Square brackets hold non-standard residues; d marks the D form. Peptide text beside a SMILES is read from it. * marks the point of attachment. FITC = O=C1OC2(c3ccc(O)cc3Oc3cc(O)ccc32)c2ccc(NC(=S)*)cc21; Ahx = NCCCCCC(=O)O

`CC(=O)O[C@H]1C(=O)[C@@]2(C)[C@H]([C@H](OC(=O)c3ccccc3)[C@]3(O)C[C@H](OC(=O)[C@H](OC(=O)NCCCC[C@H](NC(=O)[C@@H](CCCNC(=N)N)NC(=O)[C@@H](CCCNC(=N)N)NC(=O)[C@@H](CCCNC(=N)N)NC(=O)[C@@H](CCCNC(=N)N)NC(=O)[C@@H](CCCNC(=N)N)NC(=O)[C@@H](CCCNC(=N)N)NC(=O)[C@@H](CCCNC(=N)N)NC(=O)CCCCCNC(=O)CCCC[C@@H]4SC[C@@H]5NC(=O)N[C@@H]54)C(N)=O)[C@@H](NC(=O)c4ccccc4)c4ccccc4)C(C)=C1C3(C)C)[C@]1(OC(C)=O)CO[C@@H]1C[C@@H]2O` [B-aca-r7-K-taxol]: the “penetration of drug conjugates into skin” value in series [1] is “effectively entered into and across the epidermis and into the dermis of the skin of nude mice”.

For `CC(=O)O[C@H]1C(=O)[C@@]2(C)[C@H]([C@H](OC(=O)c3ccccc3)[C@]3(O)C[C@H](OC(=O)[C@H](OC(=O)NCCCC[C@H](NC(=O)[C@@H](CCCNC(=N)N)NC(=O)[C@@H](CCCNC(=N)N)NC(=O)[C@@H](CCCNC(=N)N)NC(=O)[C@@H](CCCNC(=N)N)NC(=O)[C@@H](CCCNC(=N)N)NC(=O)[C@@H](CCCNC(=N)N)NC(=O)[C@@H](CCCNC(=N)N)NC(=O)[C@@H](CCCNC(=N)N)NC(=O)[C@@H](CCCNC(=N)N)NC(=O)CCCCCNC(=O)CCCC[C@@H]4SC[C@@H]5NC(=O)N[C@@H]54)C(N)=O)[C@@H](NC(=O)c4ccccc4)c4ccccc4)C(C)=C1C3(C)C)[C@]1(OC(C)=O)CO[C@@H]1C[C@@H]2O` [B-aca-r9-K-taxol], the “penetration of drug conjugates into skin” value in series [1] is “effectively entered into and across the epidermis and into the dermis of the skin of nude mice”.

For `N=C(N)NCCC[C@@H](NC(=O)[C@@H](CCCNC(=N)N)NC(=O)[C@@H](CCCNC(=N)N)NC(=O)[C@@H](CCCNC(=N)N)NC(=O)[C@@H](CCCNC(=N)N)NC(=O)[C@@H](CCCNC(=N)N)NC(=O)[C@@H](CCCNC(=N)N)NC(=O)CCCCCNC(=O)CCCC[C@@H]1SC[C@@H]2NC(=O)N[C@@H]21)C(N)=O` [Biotinylated arginine heptamer], the “penetration into skin (streptavidin staining)” value in series [1] (mouse, in vivo) is “crossed into and across the epidermis and into the dermis”. The penetration into skin result in series [2] was “crossed into and across the epidermis and into the dermis”. In addition, in series [3], the “penetration into human skin” value is “crossed into and across the epidermis and into the dermis of the human skin”.

For `C/C=C/C[C@@H](C)[C@@H](OC(=O)CN(Cc1ccccc1)C(=O)CNCC(=O)N[C@H](CCCNC(=N)N)C(=O)N[C@H](CCCNC(=N)N)C(=O)N[C@H](CCCNC(=N)N)C(=O)N[C@H](CCCNC(=N)N)C(=O)N[C@H](CCCNC(=N)N)C(=O)N[C@H](CCCNC(=N)N)C(=O)N[C@H](CCCNC(=N)N)C(=O)O)[C@H]1C(=O)N[C@@H](CC)C(=O)N(C)CC(=O)N(C)[C@@H](CC(C)C)C(=O)N[C@@H](C(C)C)C(=O)N(C)[C@@H](CC(C)C)C(=O)N[C@@H](C)C(=O)N[C@H](C)C(=O)N(C)[C@@H](CC(C)C)C(=O)N(C)[C@@H](CC(C)C)C(=O)N(C)[C@@H](C(C)C)C(=O)N1C` [CGC1072], the half-life entry in series [4] (PBS pH 7.4 (37° C. where stated)) is “approximately ninety”; in series [4] (buffer, PBS, pH 7.4 at 37° C., read-out: half life (converted)), 1.5 h.

For `NCCCC[C@@H](NC(=O)[C@@H](CCCCN)NC(=O)[C@@H](CCCCN)NC(=O)[C@@H](CCCCN)NC(=O)[C@@H](CCCCN)NC(=O)[C@@H](CCCCN)NC(=O)[C@@H](CCCCN)NC(=O)CCCCCNC(=S)Nc1ccc2c(c1)C(=O)OC21c2ccc(O)cc2Oc2cc(O)ccc21)C(N)=O` [Fl aca k7, reference compound] ({FITC-Ahx}-[dK][dK][dK][dK][dK][dK][dK]-NH2), in series [5], the “uptake into Caco-2 cells in suspension (flow cytometry)” value (from here on “uptake into Caco-2 cells in suspension”) is given as “All the polymers of arginine entered cells more effectively than the nonamers of lysine”.

For the molecule `N=C(N)NCCC[C@H](NC(=O)[C@H](CCCNC(=N)N)NC(=O)[C@H](CCCNC(=N)N)NC(=O)[C@H](CCCNC(=N)N)NC(=O)[C@H](CCCNC(=N)N)NC(=O)CCCCCNC(=S)Nc1ccc2c(c1)C(=O)OC21c2ccc(O)cc2Oc2cc(O)ccc21)C(N)=O` [R5, F1-ahx-RRRRR] ({FITC-Ahx}-RRRRR-NH2), in series [5], the “uptake into Caco-2 cells in suspension” value was “r9 being more effective than r7, which was more effective than r5”.

In the case of `N=C(N)NCCC[C@H](NC(=O)[C@H](CCCNC(=N)N)NC(=O)[C@H](CCCNC(=N)N)NC(=O)[C@H](CCCNC(=N)N)NC(=O)[C@H](CCCNC(=N)N)NC(=O)[C@H](CCCNC(=N)N)NC(=O)[C@H](CCCNC(=N)N)NC(=O)CCCCCNC(=S)Nc1ccc2c(c1)C(=O)OC21c2ccc(O)cc2Oc2cc(O)ccc21)C(N)=O` [R7, F1-ahx-RRRRRRR], the “uptake into Caco-2 cells in suspension” value in series [5] is given as “r9 being more effective than r7, which was more effective than r5”.

`N=C(N)NCCC[C@@H](NC(=O)[C@@H](CCCNC(=N)N)NC(=O)[C@@H](CCCNC(=N)N)NC(=O)[C@@H](CCCNC(=N)N)NC(=O)[C@@H](CCCNC(=N)N)NC(=O)[C@@H](CCCNC(=N)N)NC(=O)[C@@H](CCCNC(=N)N)NC(=O)[C@@H](CCCNC(=N)N)NC(=O)[C@@H](CCCNC(=N)N)NC(=O)CCCCCNC(=S)Nc1ccc2c(c1)C(=O)OC21c2ccc(O)cc2Oc2cc(O)ccc21)C(N)=O` [r9]: the “Km values fold greater / fold better than Tat49-57” value in series [6] (Discussion) turned out to be 100 fold. In series [6] (setting [8]), the Michaelis constant (Km) stood at 7.6 µM and the Vmax amounted to 0.38. Moreover, in series [6] (from Km values, Jurkat cells), the “rate of entering cells, fold faster than Tat47-59” value is “approximately 100 fold”. Further, the “cellular uptake compared with d-arginine oligomers / other peptoids” value in series [7] is recorded as “comparable to N-btg9”. For the same molecule, in series [7] (peptoids and d-arginine oligomers), the “relative order of cellular uptake” value was “N-hxg9 (6 methylene)>N-btg9 (4 methylene)>r9 (3 methylene)>N-arg9 (3 methylene)>N-etg9 (2 methylene)”. Besides, in series [5] (50 μM, fluorescent microscopy), the “uptake into Caco-2 monolayer on microscope slide” value was “virtually every cell in the monolayer was fluorescent after five minutes”. In addition, the “uptake into Caco-2 cells in suspension” value in series [5] is on record as “r9 being more effective than r7, which was more effective than r5”.

The values above are taken from US6669951B2, “Compositions and methods for enhancing drug delivery across and into epithelial tissues” (CellGate, Inc., priority 1999, dated 2003).
